Data reported in patent US20230105212A1, “BIPHENYL DERIVATIVE INHIBITOR, PREPARATION METHOD THEREFOR AND USE THEREOF” (SHANGHAI HANSOH BIOMEDICAL CO., LTD., priority 2020, published 2023).
Where two headings read alike, the source gives them in different places.

Experiments:
[1] = target: T1, PD-L1 protein on the surface of MC38-hPDL1 tumor cells (Homo sapiens, UniProt Q9NZQ7); experiment: Induction of endocytosis of PD-L1 on the surface of tumor cells (flow cytometry); format: cell-based; details: 16 hours incubation; for Emax: MC38-hPDL1 cells, read-out: MC38 maximum endocytosis rate; for IC50: inducing endocytosis of PD-L1, MC38-hPDL1 cells, read-out: MC38 IC50
T1 construct: expressed in transfected cells; host or cells: MC38-hPDL1 (mouse colon cancer cells)
In short: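 IC50 comes from nonlinear fits of endocytosis rate, calculated from the loss of surface PE-anti-CD274 flow signal relative to vehicle. Cells were MC38 mouse colon cancer cells engineered to express high human PD-L1. Compound exposure lasted 16 h at 37 °C, 5% CO2.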

human PD-L1 protein = target: T2, human PD-L1 protein (Homo sapiens, UniProt Q9NZQ7); experiment: Thermal shift: melting temperature of PD-L1 protein; format: binding; details: read-out: ΔTm (° C.)
T2 construct: purchased Acro Biosystems PD1-H5229
Procedure: Test Embodiment 4. Test of Combination of the Compounds of the Present Disclosure to Improve the Stability (Melting Temperature) of PD-L1 Protein Experimental purpose: To test the ability of compounds to enhance the stability of PD-L1 protein and increase the melting temperature of the protein. Experimental method: […] A solution containing […] HEPES, SYPRO Orange, and 150 mM NaCl was prepared as experimental buffer, and human PD-L1 protein was added at a final concentration of 2 μM. […] PCR tube was put into the PCR machine, and the melt curve function was selected to detect the melting temperature of PD-L1 protein in different treatment groups (heated from 25° C. to 95° C., 0.03° C./s). The experimental data file of the PCR instrument was imported into the thermal shift software to obtain the melting temperature (Tm) of each treatment group, and the Tm of the DMSO vehicle control group was subtracted to obtain the change value (ΔTm) of the melting temperature, as shown in the following table: […]

human PD-1/PD-L1 binding = target: T3, human PD-1/PD-L1 binding (Homo sapiens, UniProt Q9NZQ7); experiment: Inhibition of human PD-1/PD-L1 binding (TR-FRET/HTRF); details: TR-FRET, PD-L1-His and PD-1-Fc; read-out: PD-1/PD-L1 binding IC50
T3 construct: PD-L1-His protein (19 to 238 amino acids) (Abcam #ab167713); purchased Abcam (PD-L1-His); R&D (PD-1-Fc) ab167713; 1086-PD
In short: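 PD-L1-His (aa 19–238, diluted to 10 nM) and PD-1-Fc (aa 25–167, diluted to 20 nM) incubated with compounds (10 μM or 1 μM top, 3-fold, 11 doses) 60 min at room temperature, then anti-6HIS Eu cryptate/anti-human IgG-XL665 added for 3 h RT or overnight 4 °C. HTRF 665/620 nm ratio gave inhibition and IC50.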

[2] = compound 10 μM, PD-L1 protein 2 μM, Tm minus DMSO vehicle control

T2 sequence (Q9NZQ7 19-238 limits assumed): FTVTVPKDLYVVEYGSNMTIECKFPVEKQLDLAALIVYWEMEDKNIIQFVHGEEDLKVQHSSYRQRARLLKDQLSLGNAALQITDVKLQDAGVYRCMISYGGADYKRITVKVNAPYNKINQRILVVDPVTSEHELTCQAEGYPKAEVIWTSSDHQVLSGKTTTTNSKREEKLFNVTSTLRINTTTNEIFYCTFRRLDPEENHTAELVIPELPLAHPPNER
T3 sequence (Q9NZQ7 19-238): as the sequence (Q9NZQ7 19-238 limits assumed) above
T1 sequence (Q9NZQ7 19-290): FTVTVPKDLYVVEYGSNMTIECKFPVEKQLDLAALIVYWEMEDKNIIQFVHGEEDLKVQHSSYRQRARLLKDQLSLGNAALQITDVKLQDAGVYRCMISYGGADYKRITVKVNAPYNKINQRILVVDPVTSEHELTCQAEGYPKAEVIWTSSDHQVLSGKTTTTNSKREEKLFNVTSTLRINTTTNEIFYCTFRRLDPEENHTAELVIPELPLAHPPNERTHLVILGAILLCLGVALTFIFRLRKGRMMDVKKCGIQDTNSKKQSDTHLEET

SMILES	Emax [1] [%]	ΔTm at 10 µM (human PD-L1 protein; [2]) [°C]	IC50 (human PD-1/PD-L1 binding) [nM]	IC50 [1] [nM]	ΔTm at 10 µM (human PD-L1 protein) [°C]
COc1nc(-c2cccc(-c3cccc(NC(=O)c4nc5c(n4C)CCN(C)C5)c3Cl)c2Cl)ncc1CN[C@H]1CCOC[C@@H]1O (relative stereo) [Embodiment 228, N-(2,2′-Dichloro-3′-(5-(((trans-3-hydroxytetrahydro-2H-pyran-4-yl)amino)methyl)-4-methoxypyrimidin-2-yl)-[1,1′-biphenyl]-3-yl)-1,5-dimethyl-4,5,6,7-tetrahydro-1H-imidazo[4,5-c]pyridine-2-carboxamide]	95	11.6	4.2	–	–
CCn1c(C(=O)Nc2cccc(-c3cccc(-c4ccc(CN[C@H]5CCOC[C@@H]5O)c(OC)n4)c3Cl)c2Cl)nc2c1CCN(C)C2 (relative stereo) [Embodiment 235, N-(2,2′-Dichloro-3′-(5-(((trans-3-hydroxytetrahydro-2H-pyran-4-yl)amino)methyl)-6-methoxypyridin-2-yl)-[1,1′-biphenyl]-3-yl)-1-ethyl-5-methyl-4,5,6,7-tetrahydro-1H-imidazo[4,5-c]pyridine-2-carboxamide]	93	11.3	6.4	–	–
COc1cc(C(=O)Nc2cccc(-c3cccc(NC(=O)c4nc5c(n4C)CCN(C)C5)c3Cl)c2C)ncc1CN[C@@H]1CONC1=O [Embodiment 96, (R)—N-(2-Chloro-3′-(4-methoxy-5-(((3-carbonylisoxazolidin-4-yl)amino)methyl)picolinamido)-2′-methyl-[1,1′-biphenyl]-3-yl)-1,5-dimethyl-4,5,6,7-tetrahydro-1H-imidazo[4,5-c]pyridine-2-carboxamide]	–	10.5	2.3	–	–
COc1nc(-c2cccc(-c3cccc(NC(=O)c4nc5c(n4C)CCN(C)C5)c3Cl)c2Cl)ccc1CN1CC(OC(C)=O)C1 [Embodiment 122, 1-((6-(2,2′-Dichloro-3′-(1,5-dimethyl-4,5,6,7-tetrahydro-1H-imidazo[4,5-c]pyridine-2-carboxamido)-[1,1′-biphenyl]-3-yl)-2-methoxypyridin-3-yl)methyl)azetidin-3-yl acetate]	97	14.8	3.5	0.4	–
COc1nc(-c2cccc(-c3cccc(NC(=O)c4nc5c(n4C)CCN(C)C5)c3Cl)c2Cl)ccc1CN1CC2(CCCO2)C1 [Embodiment 125, N-(3′-(5-((5-Oxa-2-azaspiro[3.4]octan-2-yl)methyl)-6-methoxypyridin-2-yl)-2,2′-dichloro-[1,1′-biphenyl]-3-yl)-1,5-dimethyl-4,5,6,7-tetrahydro-1H-imidazo[4,5-c]pyridine-2-carboxamide]	96	–	8.4	0.7	15.6
COc1nc(-c2cccc(-c3cccc(NC(=O)c4nc5c(n4C)CCN(C)C5)c3Cl)c2Cl)ccc1CNC[C@@H](C)O [Embodiment 128, (R)—N-(2,2′-Dichloro-3′-(5-(((2-hydroxypropyl)amino)methyl)-6-methoxypyridin-2-yl)-[1,1′-biphenyl]-3-yl)-1,5-dimethyl-4,5,6,7-tetrahydro-1H-imidazo[4,5-c]pyridine-2-carboxamide]	98	16.8	6.5	0.6	–
COc1nc(-c2cccc(-c3cccc(NC(=O)c4nc5c(n4C)CCN(C)C5)c3Cl)c2Cl)ccc1CN1CC(O)C1 [Embodiment 129, N-(2,2′-Dichloro-3′-(5-((3-hydroxyazetidin-1-yl)methyl)-6-methoxypyridin-2-yl)-[1,1′-biphenyl]-3-yl)-1,5-dimethyl-4,5,6,7-tetrahydro-1H-imidazo[4,5-c]pyridine-2-carboxamide]	95	–	2.9	1	13.9
COc1nc(-c2cccc(-c3cccc(NC(=O)c4nc5c(n4C)CCN(C)C5)c3Cl)c2Cl)ccc1CN1CC(C)(O)C1 [Embodiment 130, N-(2,2′-Dichloro-3′-(5-((3-hydroxy-3-methylazetidin-1-yl)methyl)-6-methoxypyridin-2-yl)-[1,1′-biphenyl]-3-yl)-1,5-dimethyl-4,5,6,7-tetrahydro-1H-imidazo[4,5-c]pyridine-2-carboxamide]	97	–	4.8	1.2	18.1
COc1nc(-c2cccc(-c3cccc(NC(=O)c4nc5c(n4C)CCN(C)C5)c3Cl)c2Cl)ccc1CN1CC(C(=O)O)C1 [Embodiment 135, 1-((6-(2,2′-Dichloro-3′-(1,5-dimethyl-4,5,6,7-tetrahydro-1H-imidazo[4,5-c]pyridine-2-carboxamido)-[1,1′-biphenyl]-3-yl)-2-methoxypyridin-3-yl)methyl)azetidine-3-carboxylic Acid]	98	16.7	1.2	3.1	–
COc1nc(-c2cccc(-c3cccc(NC(=O)c4nc5c(n4C)CCN(C)C5)c3Cl)c2Cl)ccc1CNCC(=O)O [Embodiment 138, ((6-(2,2′-Dichloro-3′-(1,5-dimethyl-4,5,6,7-tetrahydro-1H-imidazo[4,5-c]pyridine-2-carboxamido)-[1,1′-biphenyl]-3-yl)-2-methoxypyridin-3-yl)methyl)glycine]	97	14	0.8	4.5	–
COc1cc(-c2cccc(-c3cccc(NC(=O)c4nc5c(n4C)CCN(C)C5)c3Cl)c2Cl)ccc1CNCCO [Embodiment 157, N-(2,2′-Dichloro-4″-(((2-hydroxyethyl)amino)methyl)-3″-methoxy-[1,1′:3′,1″-terphenyl]-3-yl)-1,5-dimethyl-4,5,6,7-tetrahydro-1H-imidazo[4,5-c]pyridine-2-carboxamide]	95	11.2	4	1.5	–
COc1cc(-c2cccc(-c3cccc(NC(=O)c4nc5c(n4C)CCN(C)C5)c3Cl)c2Cl)ccc1CNC[C@@H](C)O [Embodiment 158, (R)—N-(2,2′-Dichloro-4″-(((2-hydroxypropyl)amino)methyl)-3″-methoxy-[1,1′:3′,1″-terphenyl]-3-yl)-1,5-dimethyl-4,5,6,7-tetrahydro-1H-imidazo[4,5-c]pyridine-2-carboxamide]	95	10.3	6.4	1.7	–
COc1nc(-c2cccc(-c3cccc(NC(=O)c4nc5c(n4C)CCN(C)C5)c3Cl)c2Cl)ccc1CN1CC[C@H]1C(=O)O [Embodiment 171, (S)-1-((6-(2,2′-Dichloro-3′-(1,5-dimethyl-4,5,6,7-tetrahydro-1H-imidazo[4,5-c]pyridine-2-carboxamido)-[1,1′-biphenyl]-3-yl)-2-methoxypyridin-3-yl)methyl)azetidine-2-carboxylic acid]	93	–	0.9	–	10.3
COc1nc(-c2cccc(-c3cccc(NC(=O)c4nc5c(n4C)CCN(C)C5)c3Cl)c2Cl)ccc1CN1CC[C@H]1CO [Embodiment 172, (S)—N-(2,2′-Dichloro-3′-(5-((2-(hydroxymethyl)azetidin-1-yl)methyl)-6-methoxypyridin-2-yl)-[1,1′-biphenyl]-3-yl)-1,5-dimethyl-4,5,6,7-tetrahydro-1H-imidazo[4,5-c]pyridine-2-carboxamide]	94	–	6.3	–	13.9
COc1nc(-c2cccc(-c3cccc(NC(=O)c4nc5c(n4C)CCN(C)C5)c3Cl)c2Cl)ccc1CNC1CN(C(C)=O)C1 [Embodiment 179, N-(3′-(5-(((1-Acetylazetidin-3-yl)amino)methyl)-6-methoxypyridin-2-yl)-2,2′-dichloro-[1,1′-biphenyl]-3-yl)-1,5-dimethyl-4,5,6,7-tetrahydro-1H-imidazo[4,5-c]pyridine-2-carboxamide]	96	12.3	7.9	–	–
CCn1c(C(=O)Nc2cccc(-c3cccc(-c4ccc(CNC5COC5)c(OC)n4)c3Cl)c2Cl)nc2c1CCN(C)C2 [Embodiment 236, N-(2,2′-Dichloro-3′-(6-methoxy-5-((oxetan-3-ylamino)methyl)pyridin-2-yl)-[1,1′-biphenyl]-3-yl)-1-ethyl-5-methyl-4,5,6,7-tetrahydro-1H-imidazo[4,5-c]pyridine-2-carboxamide]	90	10.6	–	–	–
